# According to ChEMBL document CHEMBL3593229, “Identification of a potent 5-phenyl-thiazol-2-ylamine-based inhibitor of FLT3 with activity against drug resistance-conferring point mutations” (Eur J Med Chem, 2015):
# Calls of active or inactive are those of the source. The rule behind the calls is not given here.
# Tests used:
# animal or person = settings: Mus musculus, 32D, po, read-out: TGI
# [1] = target: Inhibitor of nuclear factor kappa-B kinase subunit epsilon (Homo sapiens) (UniProt Q14164); experiment: Inhibition of human IKKepsilon at 0.1 uM relative to control
# [2] = target: Serine/threonine-protein kinase MRCK alpha (Homo sapiens) (UniProt Q5VT25); experiment: Inhibition of human MRCKA at 0.1 uM relative to control
# [3] = target: Serine/threonine-protein kinase Chk1 (Homo sapiens) (UniProt O14757); experiment: Inhibition of human CHK1 at 0.1 uM relative to control
# Chain of Serine/threonine-protein kinase Chk1 (Homo sapiens) (O14757 whole entry): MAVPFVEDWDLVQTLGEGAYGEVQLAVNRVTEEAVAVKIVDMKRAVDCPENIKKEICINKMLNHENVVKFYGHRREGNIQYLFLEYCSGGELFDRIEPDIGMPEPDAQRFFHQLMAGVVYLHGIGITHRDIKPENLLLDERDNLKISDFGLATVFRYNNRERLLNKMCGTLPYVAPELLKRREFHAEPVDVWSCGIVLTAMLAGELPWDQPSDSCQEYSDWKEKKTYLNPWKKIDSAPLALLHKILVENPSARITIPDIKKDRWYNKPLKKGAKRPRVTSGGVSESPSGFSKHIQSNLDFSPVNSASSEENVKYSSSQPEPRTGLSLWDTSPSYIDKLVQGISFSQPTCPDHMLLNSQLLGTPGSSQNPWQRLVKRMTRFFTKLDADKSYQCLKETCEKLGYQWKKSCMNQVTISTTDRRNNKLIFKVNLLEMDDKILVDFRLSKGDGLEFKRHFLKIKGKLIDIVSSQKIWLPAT
# [4] = target: Proto-oncogene tyrosine-protein kinase Src (Homo sapiens) (UniProt P12931); experiment: Inhibition of human SRC at 0.1 uM relative to control
# [5] = target: T1, Receptor-type tyrosine-protein kinase FLT3 (Homo sapiens, UniProt P36888); experiment: biochemical; format: cell-based, Sf9
# T1 sequence (P36888 whole entry): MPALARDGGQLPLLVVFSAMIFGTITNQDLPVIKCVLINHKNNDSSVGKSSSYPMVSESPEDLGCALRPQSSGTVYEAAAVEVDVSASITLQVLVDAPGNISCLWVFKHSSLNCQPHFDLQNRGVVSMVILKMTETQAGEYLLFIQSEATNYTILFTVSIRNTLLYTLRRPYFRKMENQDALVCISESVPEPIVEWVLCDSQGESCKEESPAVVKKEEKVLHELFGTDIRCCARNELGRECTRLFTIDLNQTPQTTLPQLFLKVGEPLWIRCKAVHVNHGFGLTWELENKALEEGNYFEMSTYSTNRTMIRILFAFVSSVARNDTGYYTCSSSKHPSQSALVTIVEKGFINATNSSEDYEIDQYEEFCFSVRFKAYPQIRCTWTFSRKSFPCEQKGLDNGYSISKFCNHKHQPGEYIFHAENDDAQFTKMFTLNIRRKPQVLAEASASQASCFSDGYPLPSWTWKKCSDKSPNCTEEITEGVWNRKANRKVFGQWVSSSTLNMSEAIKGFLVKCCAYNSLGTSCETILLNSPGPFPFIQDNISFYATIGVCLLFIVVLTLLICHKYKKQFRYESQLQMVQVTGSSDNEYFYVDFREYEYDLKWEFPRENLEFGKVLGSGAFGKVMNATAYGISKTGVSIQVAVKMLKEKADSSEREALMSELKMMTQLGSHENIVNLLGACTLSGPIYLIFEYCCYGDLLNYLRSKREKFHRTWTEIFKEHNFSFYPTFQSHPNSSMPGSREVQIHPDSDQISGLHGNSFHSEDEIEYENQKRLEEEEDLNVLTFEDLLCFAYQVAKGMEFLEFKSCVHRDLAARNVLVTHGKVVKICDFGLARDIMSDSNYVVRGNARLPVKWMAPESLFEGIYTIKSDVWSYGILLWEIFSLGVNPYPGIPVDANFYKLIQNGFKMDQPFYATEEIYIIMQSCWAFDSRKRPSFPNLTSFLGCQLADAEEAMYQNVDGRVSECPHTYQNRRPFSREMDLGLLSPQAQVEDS
# Description: Inhibition of wild type GST-tagged FLT3 kinase domain (Y567 to S993) (unknown origin) expressed in baculovirus infected insect Sf9 cells using Her2 peptide as substrate after 4 hrs by Kinase-Glo assay
# [6] = Oral bioavailability in Sprague-Dawley rat at 10 mg/kg; format: ADME, organism-based; settings: in vivo
# [7] = target: Platelet-derived growth factor receptor beta (Homo sapiens) (UniProt P09619); experiment: Inhibition of human PDGFRbeta at 0.1 uM relative to control
# Chain of Platelet-derived growth factor receptor beta (Homo sapiens) (P09619 whole entry): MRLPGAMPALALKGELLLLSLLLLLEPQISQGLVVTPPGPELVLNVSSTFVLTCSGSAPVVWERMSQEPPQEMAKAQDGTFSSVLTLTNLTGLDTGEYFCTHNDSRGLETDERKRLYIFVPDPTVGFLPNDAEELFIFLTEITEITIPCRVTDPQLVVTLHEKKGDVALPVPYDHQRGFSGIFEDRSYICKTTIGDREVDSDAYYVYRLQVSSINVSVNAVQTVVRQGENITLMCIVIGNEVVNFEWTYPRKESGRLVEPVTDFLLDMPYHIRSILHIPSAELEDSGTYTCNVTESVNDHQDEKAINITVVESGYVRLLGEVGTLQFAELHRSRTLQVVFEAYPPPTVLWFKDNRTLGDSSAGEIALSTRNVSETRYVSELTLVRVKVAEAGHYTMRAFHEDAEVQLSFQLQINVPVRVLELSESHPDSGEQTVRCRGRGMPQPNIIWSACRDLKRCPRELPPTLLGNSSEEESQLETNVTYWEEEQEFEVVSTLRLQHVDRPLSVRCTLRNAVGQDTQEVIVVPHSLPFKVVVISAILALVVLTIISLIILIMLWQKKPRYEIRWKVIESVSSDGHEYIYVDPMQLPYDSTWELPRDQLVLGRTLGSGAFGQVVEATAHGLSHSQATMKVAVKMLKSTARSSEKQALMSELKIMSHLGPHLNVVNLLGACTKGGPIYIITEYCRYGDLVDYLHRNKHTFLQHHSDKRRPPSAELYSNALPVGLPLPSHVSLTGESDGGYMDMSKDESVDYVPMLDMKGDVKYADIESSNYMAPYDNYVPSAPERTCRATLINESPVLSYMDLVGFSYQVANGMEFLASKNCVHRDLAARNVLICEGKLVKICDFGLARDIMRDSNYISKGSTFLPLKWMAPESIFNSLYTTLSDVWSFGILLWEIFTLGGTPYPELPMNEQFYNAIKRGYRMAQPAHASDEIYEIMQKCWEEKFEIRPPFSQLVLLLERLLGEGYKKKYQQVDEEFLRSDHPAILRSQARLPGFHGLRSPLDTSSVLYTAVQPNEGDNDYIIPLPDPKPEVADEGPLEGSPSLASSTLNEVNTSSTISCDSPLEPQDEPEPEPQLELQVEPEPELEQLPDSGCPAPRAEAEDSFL
# [8] = target: Insulin-like growth factor 1 receptor (Homo sapiens) (UniProt P08069); experiment: Inhibition of human IGF1R at 0.1 uM relative to control
# [9] = target: Tyrosine-protein kinase receptor TYRO3 (Homo sapiens) (UniProt Q06418); experiment: Inhibition of human TYRO3 at 0.1 uM relative to control
# [10] = tested on: Platelet-derived growth factor receptor alpha (Homo sapiens), P16234 [T674I]; experiment: Inhibition of human PDGFRA T674I mutant at 0.1 uM relative to control
# [11] = target: Angiopoietin-1 receptor (Homo sapiens) (UniProt Q02763); experiment: Inhibition of human TEK at 0.1 uM relative to control
# Chain of Angiopoietin-1 receptor (Homo sapiens) (Q02763 whole entry): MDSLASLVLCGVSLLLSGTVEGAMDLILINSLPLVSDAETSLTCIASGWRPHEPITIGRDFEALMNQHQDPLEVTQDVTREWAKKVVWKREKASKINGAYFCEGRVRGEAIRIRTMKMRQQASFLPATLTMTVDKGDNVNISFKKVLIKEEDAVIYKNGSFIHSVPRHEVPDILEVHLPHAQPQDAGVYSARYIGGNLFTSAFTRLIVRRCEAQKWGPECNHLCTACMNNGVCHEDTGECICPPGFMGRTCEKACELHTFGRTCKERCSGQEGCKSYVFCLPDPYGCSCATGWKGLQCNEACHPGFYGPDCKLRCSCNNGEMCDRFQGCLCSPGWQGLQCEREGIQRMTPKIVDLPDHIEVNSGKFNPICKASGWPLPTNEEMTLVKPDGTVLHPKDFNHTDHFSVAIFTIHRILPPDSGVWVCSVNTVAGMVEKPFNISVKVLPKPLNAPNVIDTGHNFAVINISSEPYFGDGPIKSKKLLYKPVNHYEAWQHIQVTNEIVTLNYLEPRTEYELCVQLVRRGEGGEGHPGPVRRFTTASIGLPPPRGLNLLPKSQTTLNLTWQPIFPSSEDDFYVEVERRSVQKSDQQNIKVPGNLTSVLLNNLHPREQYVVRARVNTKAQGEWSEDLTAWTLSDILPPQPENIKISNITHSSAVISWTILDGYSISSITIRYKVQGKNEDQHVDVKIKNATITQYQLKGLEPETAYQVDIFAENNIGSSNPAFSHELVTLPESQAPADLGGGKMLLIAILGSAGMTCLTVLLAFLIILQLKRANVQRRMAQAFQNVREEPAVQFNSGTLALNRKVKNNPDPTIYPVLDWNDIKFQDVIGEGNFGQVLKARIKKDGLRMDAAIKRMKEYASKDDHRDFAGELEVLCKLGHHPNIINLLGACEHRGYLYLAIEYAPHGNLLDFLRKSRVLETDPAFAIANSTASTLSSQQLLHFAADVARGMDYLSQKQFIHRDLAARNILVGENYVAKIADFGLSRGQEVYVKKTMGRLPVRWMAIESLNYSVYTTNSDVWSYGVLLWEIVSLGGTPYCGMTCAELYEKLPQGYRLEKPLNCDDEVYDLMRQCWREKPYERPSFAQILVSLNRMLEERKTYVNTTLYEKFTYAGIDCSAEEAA
# [12] = target: Serine/threonine-protein kinase Nek2 (Homo sapiens) (UniProt P51955); experiment: Inhibition of human NEK2 at 0.1 uM relative to control
# [13] = target: Serine/threonine-protein kinase Sgk1 (Homo sapiens) (UniProt O00141); experiment: Inhibition of human SGK1 at 0.1 uM relative to control
# Chain of Serine/threonine-protein kinase Sgk1 (Homo sapiens) (O00141 whole entry): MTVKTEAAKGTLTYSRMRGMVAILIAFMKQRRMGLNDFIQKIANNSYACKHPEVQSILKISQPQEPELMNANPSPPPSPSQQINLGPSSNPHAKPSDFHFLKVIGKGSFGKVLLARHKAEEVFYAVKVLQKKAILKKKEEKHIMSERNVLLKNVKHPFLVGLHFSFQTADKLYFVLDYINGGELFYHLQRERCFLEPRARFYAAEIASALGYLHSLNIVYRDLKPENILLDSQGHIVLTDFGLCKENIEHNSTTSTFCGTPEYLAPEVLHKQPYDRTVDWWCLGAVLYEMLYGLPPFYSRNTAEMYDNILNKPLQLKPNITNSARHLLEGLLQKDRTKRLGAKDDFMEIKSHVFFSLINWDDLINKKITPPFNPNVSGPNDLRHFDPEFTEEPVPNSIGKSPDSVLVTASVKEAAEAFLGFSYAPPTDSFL
# [14] = AUC (0 to infinity) in ICR mouse at 10 mg/kg, po; format: ADME, organism-based; design: dose 10 mg/kg, time infinity, route oral; settings: in vivo
# [15] = Volume of distribution at steady state in Sprague-Dawley rat at 2 mg/kg, iv; format: ADME, organism-based; settings: in vivo, read-out: Vdss
# [16] = target: Ribosomal protein S6 kinase alpha-5 (Homo sapiens) (UniProt O75582); experiment: Inhibition of human MSK1 at 0.1 uM relative to control
# [17] = target: Vascular endothelial growth factor receptor 1 (Homo sapiens) (UniProt P17948); experiment: Inhibition of human FLT1 at 0.1 uM relative to control
# [18] = target: Dual specificity mitogen-activated protein kinase kinase 1 (Homo sapiens) (UniProt Q02750); experiment: Inhibition of human MEK1 at 0.1 uM relative to control
# [19] = target: Tyrosine-protein kinase Lyn (Homo sapiens) (UniProt P07948); experiment: Inhibition of human LYNB at 0.1 uM relative to control
# MV4-11 = experiment: Antitumor activity against human MV4-11 cells xenografted in nude mouse assessed as tumor regression at 25 mg/kg, po qd administered on day 8 to 12 measured during 48 days post last dose; format: functional, organism-based
# [20] = target: Tyrosine-protein kinase CSK (Homo sapiens) (UniProt P41240); experiment: Inhibition of human CSK at 0.1 uM relative to control
# Chain of Tyrosine-protein kinase CSK (Homo sapiens) (P41240 2-450 limits assumed): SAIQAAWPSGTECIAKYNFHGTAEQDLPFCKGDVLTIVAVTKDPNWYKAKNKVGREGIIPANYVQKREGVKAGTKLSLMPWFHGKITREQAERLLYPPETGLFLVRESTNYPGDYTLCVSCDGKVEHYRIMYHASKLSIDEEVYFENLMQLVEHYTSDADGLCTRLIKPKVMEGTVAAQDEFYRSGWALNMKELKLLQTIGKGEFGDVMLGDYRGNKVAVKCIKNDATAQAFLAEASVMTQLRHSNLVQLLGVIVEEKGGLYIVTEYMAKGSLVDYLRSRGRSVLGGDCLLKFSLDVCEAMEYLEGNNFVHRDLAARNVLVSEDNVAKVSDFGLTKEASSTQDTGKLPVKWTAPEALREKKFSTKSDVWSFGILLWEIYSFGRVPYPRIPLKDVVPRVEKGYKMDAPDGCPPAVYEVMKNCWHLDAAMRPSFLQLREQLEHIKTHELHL
# [21] = target: Ribosomal protein S6 kinase alpha-3 (Homo sapiens) (UniProt P51812); experiment: Inhibition of human RSK2 at 0.1 uM relative to control
# [22] = tested on: Proto-oncogene tyrosine-protein kinase receptor Ret (Homo sapiens), P07949 [Y791F]; experiment: Inhibition of human RET Y791F mutant at 0.1 uM relative to control
# [23] = target: Serine/threonine-protein kinase Sgk2 (Homo sapiens) (UniProt Q9HBY8); experiment: Inhibition of human SGK2 at 0.1 uM relative to control
# Chain of Serine/threonine-protein kinase Sgk2 (Homo sapiens) (Q9HBY8 whole entry): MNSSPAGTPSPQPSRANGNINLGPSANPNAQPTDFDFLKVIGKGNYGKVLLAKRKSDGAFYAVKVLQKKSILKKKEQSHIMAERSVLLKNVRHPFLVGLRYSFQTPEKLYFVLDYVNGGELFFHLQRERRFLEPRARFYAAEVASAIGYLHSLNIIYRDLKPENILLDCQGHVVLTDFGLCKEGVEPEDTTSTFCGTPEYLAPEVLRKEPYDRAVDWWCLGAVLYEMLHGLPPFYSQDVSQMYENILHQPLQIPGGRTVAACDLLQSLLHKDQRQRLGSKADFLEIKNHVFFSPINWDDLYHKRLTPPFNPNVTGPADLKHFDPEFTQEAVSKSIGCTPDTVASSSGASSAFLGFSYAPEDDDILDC
# [24] = AUC (0 to infinity) in Sprague-Dawley rat at 10 mg/kg, po; format: ADME, organism-based; design: dose 10 mg/kg, time infinity, route oral; settings: in vivo
# [25] = tested on: Receptor-type tyrosine-protein kinase FLT3 (Homo sapiens), P36888 [D835F]
# Chain of Receptor-type tyrosine-protein kinase FLT3 (Homo sapiens), P36888 [D835F] (P36888 whole entry D835F): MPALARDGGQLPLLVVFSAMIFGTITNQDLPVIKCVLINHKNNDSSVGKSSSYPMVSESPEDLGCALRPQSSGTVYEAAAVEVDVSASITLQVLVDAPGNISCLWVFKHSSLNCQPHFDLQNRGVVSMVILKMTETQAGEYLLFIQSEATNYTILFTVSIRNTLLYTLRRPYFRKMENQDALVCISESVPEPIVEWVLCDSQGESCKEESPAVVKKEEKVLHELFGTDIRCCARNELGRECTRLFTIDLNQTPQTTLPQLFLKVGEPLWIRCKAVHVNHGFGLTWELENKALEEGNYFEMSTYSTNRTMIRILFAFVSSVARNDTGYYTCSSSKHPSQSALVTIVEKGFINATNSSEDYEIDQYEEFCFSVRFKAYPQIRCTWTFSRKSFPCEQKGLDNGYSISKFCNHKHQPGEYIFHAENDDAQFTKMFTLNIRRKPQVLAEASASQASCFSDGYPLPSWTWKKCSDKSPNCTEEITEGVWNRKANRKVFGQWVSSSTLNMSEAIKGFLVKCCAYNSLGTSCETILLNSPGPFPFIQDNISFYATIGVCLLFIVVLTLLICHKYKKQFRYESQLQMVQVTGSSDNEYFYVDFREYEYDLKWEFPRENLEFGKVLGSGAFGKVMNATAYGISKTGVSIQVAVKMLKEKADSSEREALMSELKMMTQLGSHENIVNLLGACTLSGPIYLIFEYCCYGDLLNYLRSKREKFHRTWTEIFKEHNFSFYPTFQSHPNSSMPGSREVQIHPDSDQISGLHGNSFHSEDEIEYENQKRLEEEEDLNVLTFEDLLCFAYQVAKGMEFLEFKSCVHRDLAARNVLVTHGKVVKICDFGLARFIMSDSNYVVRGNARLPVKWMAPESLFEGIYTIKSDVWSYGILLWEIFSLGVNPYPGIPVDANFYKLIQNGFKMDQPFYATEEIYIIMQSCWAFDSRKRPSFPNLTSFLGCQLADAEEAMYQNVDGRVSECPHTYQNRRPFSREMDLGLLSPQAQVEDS
# [26] = target: Ribosomal protein S6 kinase alpha-2 (Homo sapiens) (UniProt Q15349); experiment: Inhibition of human RSK3 at 0.1 uM relative to control
# [27] = target: Non-receptor tyrosine-protein kinase TYK2 (Homo sapiens) (UniProt P29597); experiment: Inhibition of human TYK2 at 0.1 uM relative to control
# [28] = tested on: Platelet-derived growth factor receptor alpha (Homo sapiens), P16234 [D842V]; experiment: Inhibition of human PDGFRA D842V mutant at 0.1 uM relative to control
smiles,measurement,setting,value
CCc1cc(NC(=O)Nc2ccc(-c3cnc(Nc4cc(N5CCN(CC)CC5)nc(C)n4)s3)cc2)no1,inhibition in vivo at 10 mg/kg/day,animal or person,68%
same,inhibition,[1],18%
same,inhibition,[2],0%
same,inhibition,[3],17%
same,inhibition,[4],93%
same,IC50,[5],38 nM
same,bioavailability,[6],20%
same,inhibition,[7],91%
same,inhibition,[8],16%
same,inhibition,[9],28%
same,inhibition,[10],46%
same,inhibition,[11],61%
same,inhibition,[12],-4%
same,inhibition,[13],2%
same,AUC(0-inf),[14],942 ng·h/mL
same,Vd,[15],8.2 L/kg
same,inhibition,[16],0%
same,inhibition,[17],44%
same,inhibition,[18],41%
same,inhibition,[19],88%
same,Activity,MV4-11,Active
same,inhibition,[20],23%
same,inhibition,[21],-1%
same,inhibition,[22],86%
same,inhibition,[23],6%
same,AUC(0-inf),[24],1080 ng·h/mL
same,GI50,[25],38 nM
same,inhibition,[26],7%
same,inhibition,[27],21%
same,inhibition,[28],21%
